Experimental data as given in PubChem BioAssay AID1963974 (Molecular Pharmacology Branch, DTP, NCI, 2024).

Test system: 648629-189-R-J1-PDC spheroids with HUVEC/MSC, viability
Test: Anticancer human tumor 648629-189-R-J1-PDC patient-derived bladder carcinoma cell line growth inhibition [PI3K]
Details: for IC50: curve of first compound; for viability, T/C: stronger effect = lower value
Summary of the method: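 Combination activity was assessed by viability in multicellular tumor spheroids carrying HUVEC and MSC components. Agents were tested with PI3K inhibitors from a Cmax-based top dose (or 10 microM) downward in half-log increments.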
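Further: spheroids exposed to agents for seven days before reading.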
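Wherever viability, T/C is given: percent of vehicle control luminescence where 100% = DMSO treated spheroids.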

Compound CC(Cn1ccc(-c2ccc(C#N)c(Cl)c2)n1)NC(=O)c1cc(C(C)O)[nH]n1 (configuration not stated) + CC(Nc1ccc2c(c1)OCCn1cc(N3C(=O)OCC3C(F)F)nc1-2)C(N)=O has an IC50 (second compound 0.00316 µM) of over 10 µM, an IC50 (second compound 0.01 µM) of over 10 µM and an IC50 (second compound 0.0316 µM) of over 10 µM. The IC50 (second compound 0.1 µM) was over 10 µM, the IC50 (second compound 0.316 µM) was over 10 µM and the IC50 (second compound 1 µM) was over 10 µM. For the same compound, the viability, T/C (second compound 0.00316 µM, first compound 0.0316 µM) was 99.9%, the viability, T/C (second compound 0.00316 µM, first compound 0.1 µM) was 97.1% and the viability, T/C (second compound 0.00316 µM, first compound 0.316 µM) was 92.5%. For the same compound, the viability, T/C (second compound 0.00316 µM, first compound 1 µM) was 90.1%, the viability, T/C (second compound 0.00316 µM, first compound 3.16 µM) was 85.7% and the viability, T/C (second compound 0.00316 µM, first compound 10 µM) was 68.3%. It also gave a viability, T/C (second compound 0.01 µM, first compound 0.0316 µM) of 92.7%, a viability, T/C (second compound 0.01 µM, first compound 0.1 µM) of 97.2% and a viability, T/C (second compound 0.01 µM, first compound 0.316 µM) of 92.9%. For the same compound, the viability, T/C (second compound 0.01 µM, first compound 1 µM) was 88.3%, the viability, T/C (second compound 0.01 µM, first compound 3.16 µM) was 89.9% and the viability, T/C (second compound 0.01 µM, first compound 10 µM) was 70.4%. For the same compound, the viability, T/C (second compound 0.0316 µM, first compound 0.0316 µM) was 97.2%, the viability, T/C (second compound 0.0316 µM, first compound 0.1 µM) was 98.7% and the viability, T/C (second compound 0.0316 µM, first compound 0.316 µM) was 95.2%. For the same compound, the viability, T/C (second compound 0.0316 µM, first compound 1 µM) was 83.5%, the viability, T/C (second compound 0.0316 µM, first compound 3.16 µM) was 83.8% and the viability, T/C (second compound 0.0316 µM, first compound 10 µM) was 75.5%. It also gave a viability, T/C (second compound 0.1 µM, first compound 0.0316 µM) of 106%, a viability, T/C (second compound 0.1 µM, first compound 0.1 µM) of 86.9% and a viability, T/C (second compound 0.1 µM, first compound 0.316 µM) of 85.8%. For the same compound, the viability, T/C (second compound 0.1 µM, first compound 1 µM) was 86.2%, the viability, T/C (second compound 0.1 µM, first compound 3.16 µM) was 84.5% and the viability, T/C (second compound 0.1 µM, first compound 10 µM) was 72%. For the same compound, the viability, T/C (second compound 0.316 µM, first compound 0.0316 µM) was 83.8%, the viability, T/C (second compound 0.316 µM, first compound 0.1 µM) was 87.5% and the viability, T/C (second compound 0.316 µM, first compound 0.316 µM) was 78.1%. It also gave a viability, T/C (second compound 0.316 µM, first compound 1 µM) of 94.2%, a viability, T/C (second compound 0.316 µM, first compound 3.16 µM) of 72.8% and a viability, T/C (second compound 0.316 µM, first compound 10 µM) of 58.2%. It also gave a viability, T/C (second compound 1 µM, first compound 0.0316 µM) of 73.2%, a viability, T/C (second compound 1 µM, first compound 0.1 µM) of 71.6% and a viability, T/C (second compound 1 µM, first compound 0.316 µM) of 61.5%. It also gave a viability, T/C (second compound 1 µM, first compound 1 µM) of 67.6%, a viability, T/C (second compound 1 µM, first compound 3.16 µM) of 60% and a viability, T/C (second compound 1 µM, first compound 10 µM) of 57.9%.
